Experimental data taken from US7582655B2, “Antineoplastic compounds” (University of Saskatchewan, priority 2005, dated 2009).
Like-named read-outs stand apart in the source and are kept apart here.

How the values were obtained:
[1] = tested on: HSC-2, HSC-4 and HL-60 malignant cells; assay: Average CC50 for malignant cells
Method: (§1) In addition, the compounds were evaluated against human squamous cell carcinomas (HSC-2 and HSC-4) and human promyelocytic leukemia neoplasms (HL-60) and compared with normal cells, i.e. human gingival fibroblasts (HGF), human pulp cells (HPC) and human periodontal ligament fibroblasts (HPLF).
(§2) MTT stands for 3-(4,5-dimethylthiazol-2-yl)-2,5-diphenyltetrazolium bromide). The cells were incubated with varying concentrations of the compounds along with untreated cells for 24 h and the absorbance at 540 nm measured. In the case of the HL-60 assay, the trypan blue exclusion method was followed and cell viability was determined using a haemocytometer. The CC50 values were obtained from dose-response curves (Sakagami, H.; Satoh, K.; Ohata, H.; Takahashi, H.; Yoshida, H.; Iida, M.; Kuribayashi, N.; Sakagami, T.; Momose, K.; Takeda, M. Anticancer Res. 1996, 16, 2635-2644). The general methods used in culturing the cells employed in these cytotoxicity experiments have been described previously (Kawase, M.; Sakagami, H.; Motohashi, N.; Hauer, H.; Chatterjee, S. S.; Spengler, G.; Vigyikanne, A. V.; Molnár, A.; Molnár, J. In Vivo 2005, 19, 705-712; and Takeuchi, R.; Hoshijima, H.; Onuki, N.; Nagasaka, H.; Chowdhury, S. A.; Kawase, M.; Sakagami, H. Anticancer Res. 2005, 25, 4037-4042). In brief, the malignant cells were obtained from Professor Nagumo, Showa University, Japan. The HGF, HPC and HPLF cells were prepared from human periodontal tissue after obtaining informed consent according to the guidelines of Meikai University Ethics Committee, Japan (No. 0206). Since normal cells have a short lifespan, cells at the 3-7 population doubling time were used. With the exception of the HL-60 neoplasm, the cells were cultured in DMEM containing heat-inactivated FBS (10%) at 37° C. in a humidified carbon dioxide atmosphere and subcultured by trypsinization. The HL-60 cells were cultured in a similar fashion except that RPMI 1640 media was employed.

[2] = tested on: murine L-5178 lymphoma cells transfected with the human MDR1 gene; assay: MDR reversal, rhodamine 123 fluorescence activity ratio; settings: FAR >1 indicates MDR reversal; for FAR value 4 μg/ml: compound 4 μg/ml; for FAR value 40 μg/ml: compound 40 μg/ml
Method: A solution of the test compound (2 mg/ml, 10 μl) in dimethylsulfoxide was added to aliquots of the cell suspension and incubated at room temperature for 10 minutes. […] The cells were washed twice and resuspended in PBS (pH 7.4) after which the fluorescence was measured using a Beckton Dickinson FACScan instrument. The fluorescence of the cells was measured in treated MDR cells (F1), untreated MDR cells (F2), treated parental cells (F3) […] were obtained from the following equation, viz (F1/F2)/(F3/F4).

[3] = tested on: human squamous cell carcinomas HSC-4; assay: Cytotoxicity CC50, MTT assay, HSC-4
Method: as §1, §2

human pulp cells (HPC) = assay: Cytotoxicity CC50, MTT assay, normal HPC cells
Method: as §1, §2

[4] = tested on: human promyelocytic leukemia HL-60; assay: Cytotoxicity CC50, trypan blue exclusion, HL-60
Method: as §1, §2

[5] = tested on: human gingival fibroblasts (HGF); assay: Cytotoxicity CC50, MTT assay, normal HGF cells
Method: as §1, §2

[6] = tested on: human periodontal ligament fibroblasts (HPLF); assay: Cytotoxicity CC50, MTT assay, normal HPLF cells
Method: as §1, §2

[7] = tested on: human squamous cell carcinomas HSC-2; assay: Cytotoxicity CC50, MTT assay, HSC-2
Method: as §1, §2

[8] = read-out: CC50(μM) HSC-4, 24 h, MTT, average of two determinations
[9] = read-out: CC50(μM) HPC, normal cells, 24 h, MTT
[10] = read-out: CC50(μM) HL-60, 24 h, trypan blue exclusion, average of two determinations
[11] = read-out: CC50(μM) HGF, normal cells, 24 h, MTT
[12] = read-out: CC50(μM) HPLF, normal cells, 24 h, MTT
[13] = read-out: CC50(μM) HSC-2, 24 h, MTT, average of two determinations
[14] = average CC50 for HSC-2, HSC-4 and HL-60 malignant cells

Compound	CC50(μM) ave [1] [µM]	FAR value 4 μg/ml [2]	FAR value 40 μg/ml [2]	CC50 [3, 8] [µM]	CC50 (human pulp cells (HPC); [9]) [µM]	CC50 [4, 10] [µM]	CC50 [5, 11] [µM]	CC50 [6, 12] [µM]	CC50 [7, 13] [µM]	CC50(μM) ave [1, 14] [µM]	CC50 [3] [µM]	CC50 (human pulp cells (HPC)) [µM]	CC50 [4] [µM]	CC50 [5] [µM]	CC50 [1] [µM]	CC50 [6] [µM]	CC50 [7] [µM]
Cc1ccc(C=C2CN(C(=O)c3ccc(OCCN4CCCCC4)cc3)CC(=Cc3ccc(C)cc3)C2=O)cc1.Cc1ccc(C=C2CN(C(=O)c3ccc(OCCN4CCCCC4)cc3)CC(=Cc3ccc(C)cc3)C2=O)cc1.Cl.Cl.O [Compound 5d]	3.1	179	146	–	–	–	–	–	–	–	–	–	–	–	–	–	–
1-[4-{2-(4-Morpholinyl)ethoxy}phenylcarbonyl]-3,5-bis(4-nitrophenylmethylene)-4-piperidone hydrochloride hemihydrate [Compound 6c]	–	–	–	0.74	8.2	0.35	12	9.3	0.76	–	–	–	–	–	–	–	–
1-[4-{2-(1-Piperidinyl)ethoxy}phenylcarbonyl]-3,5-bis(phenylmethylene)-4-piperidone hydrochloride hemihydrate [Compound 5a]	–	–	–	2.5	12	1.4	4.6	7.4	3	2.3	–	–	–	–	–	–	–
CC[N+](C)(CC)CCOc1ccc(C(=O)N2CC(=Cc3ccc(Cl)cc3)C(=O)C(=Cc3ccc(Cl)cc3)C2)cc1.[I-] [Compound 7b, 3,5-bis(4-Chlorophenylmethylene)-1-[4-(2-diethylaminoethoxy)phenylcarbonyl]-4-piperidone methoiodide]	–	1.21	1.85	–	–	–	–	–	–	–	220	> 400	64	> 400	≥ 228	9.4	> 400
CC[N+](C)(CC)CCOc1ccc(C(=O)N2CC(=Cc3ccc([N+](=O)[O-])cc3)C(=O)C(=Cc3ccc([N+](=O)[O-])cc3)C2)cc1.[I-] [Compound 7c, 1-[4-(2-Diethylaminoethoxy)phenylcarbonyl]-3,5-bis(4-nitrophenylmethylene)-4-piperidone methoiodide]	52	1.03	1.22	–	–	–	–	–	–	–	61	130	29	93	–	13	67
Cl.Cl.O.O.O.O=C1C(=Cc2ccc([N+](=O)[O-])cc2)CN(C(=O)c2ccc(OCCN3CCCCC3)cc2)CC1=Cc1ccc([N+](=O)[O-])cc1.O=C1C(=Cc2ccc([N+](=O)[O-])cc2)CN(C(=O)c2ccc(OCCN3CCCCC3)cc2)CC1=Cc1ccc([N+](=O)[O-])cc1 [Compound 5c, 3,5-bis(4-Nitrophenylmethylene)-1-[4-{2-(1-piperidinyl)ethoxy}phenylcarbonyl]-4-piperidone hydrochloride 1.5 hydrate]	–	145	51.5	–	–	–	–	–	–	–	0.9	3.9	0.29	8	–	4.9	0.86
O=C1C(=Cc2ccc(Cl)cc2)CNCC1=Cc1ccc(Cl)cc1 [Compound 1b]	20	1.25	0.91	–	–	–	–	–	–	–	20	130	22	69	–	56	18
[4-(2-Dimethylaminoethoxy)phenylcarbonyl]-3,5-bis(phenylmethylene)-4-piperidone hydrochloride [Compound 3a]	–	45.5	51.6	2.1	–	–	–	–	3.8	2.3	–	–	1	–	–	8.9	–
1-[4-(2-Dimethylaminoethoxy)phenylcarbonyl]-3,5-bis(4-nitrophenylmethylene)-4-piperidone hydrochloride hemihydrate [Compound 3c]	–	–	–	0.71	5.2	0.31	7	5.9	0.93	–	–	–	–	–	–	–	–
Cl.O=C1C(=Cc2ccc(Cl)cc2)CN(C(=O)c2ccc(OCCN3CCOCC3)cc2)CC1=Cc1ccc(Cl)cc1 [Compound 6b]	42	76.0	6.88	–	–	–	–	–	–	–	–	–	–	–	–	–	–
